Several values for one entry are separate records, joined by “and”; a condition that tells them apart may be missing. Equal entries are not always repeated.
Molecular target: T1, HiBiT-SOCS2 fusion in HeLa cells (Homo sapiens, UniProt O14508)
T1 construct: encoding SOCS2 (32–198) in pBiT3.1-N expression vector; expressed in transfected cells; host or cells: HeLa
Assay: Split-NanoLuc CETSA, live-cell mode
Assay type: cell-based
Parameters: Produrg CETSA screening, raw signal: reference not given here
Details: for Produrg CETSA screening, raw signal: 50uM 20hrs
Description: One of the challenges with small-molecule binders displaying on-target activity with recombinant proteins, is to translate their utility to a cellular context. […] One of the advantages of CETSA is that target engagement can be monitored without the need for the development of a cell-permeable tracer molecule.
We utilized CETSA in a live-cell mode to evaluate the efficacy and rank the different prodrugs. We treated live HeLa cells with 50 μM compound (prodrugs) for 20 h and monitored Tagg shift as a proxy for the combo of prodrug permeability and unmasking (Fig. 4d). […] The observation could be because the POM group unmasking requires only esterase unlike the reliance of compounds 21–23 on esterase and phosphoramidase for unmasking an aryloxy phosphoramidate group.
N-terminal HiBiT-SOCS2 fusion was generated by encoding SOCS2 (32–198) in pBiT3.1-N expression vector (Promega). The transfection and target engagement assay were performed by modifying a NanoLuc target engagement protocol (Promega) with some small modifications. Briefly, HiBiT-SOCS2 fusion construct was transfected into HeLa cells using FuGENE HD (Promega) according to the manufacturer’s protocol. HiBiT-SOCS2 fusion construct was diluted into Transfection Carrier DNA (Promega) at a mass ratio of 1:100 or 1:10 for permeabilised and live-cell CETSA respectively. FuGENE HD was added at a ratio of 1:3 (μg DNA: μL FuGENE HD). 1 part (vol) of FuGENE HD complexes thus formed were combined with 20 parts (vol) of HeLa cells suspended at a density of 2 × 10^5 cells/mL, followed by incubation in a humidified, 37 °C + 5% CO2 incubator. After 20 h of incubation HeLa cells were detached and resuspended at a density of 2.5 × 10^5 cells/mL in Opti-MEM media without serum or phenol red but supplemented with protease inhibitor cocktail (Roche). Compounds stocks were added to cell suspension to maintain a final DMSO concentration of 1%. For the permeabilised assay format, 96-well PCR plates (Thermo) were pre-treated with digitonin to have a final well concentration of 50 μg/ml. 50 μl Opti-MEM cell suspension was then aliquoted to each well of the 96-well plate. The plates are then covered with microporous tape sheet (Qiagen) prior to incubation in a humidified, 37 °C + 5% CO2 incubator. Post-incubation we heat the PCR plates in 16-point temperature (split across two runs) curve spanning degrees 40-72 °C temperature span (CFX96 Touch Real-Time PCR Detection System, BioRad). The thermal cycler block was allowed to rise to the designated temperatures prior to placement of the PCR plates into the heating block and heat treatment for 3 min. After incubating the plates at room temperature for over 3 min, 50 μl of the Nano-Glo HiBiT Lytic mix (Promega) was added to each well. Samples were mixed by pipetting and placing the plate on an orbital shaker (600 rpm) for 5 min. 20 μl of the samples (in triplicates) were transferred to a AlphaPlate-384 plate (Perkin Elmer). Luminescence was recorded with GloMax Discover Microplate Reader (Promega). To generate apparent Tagg curves, the data is first converted to percent stabilized by relating the observed luminescence to the luminescence of the lowest temperature (40 °C) for that given sample. Data are then fitted to obtain apparent Tagg values using the Boltzmann Sigmoid equation using Graphpad Prism 9.

T1 sequence (O14508 32-198): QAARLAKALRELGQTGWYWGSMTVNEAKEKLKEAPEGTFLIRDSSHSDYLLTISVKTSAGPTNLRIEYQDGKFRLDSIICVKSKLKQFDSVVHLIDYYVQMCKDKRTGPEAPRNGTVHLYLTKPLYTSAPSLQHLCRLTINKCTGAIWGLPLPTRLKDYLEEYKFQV
T1 sequence (Q15370 whole entry, further chain, the tested form may be a part): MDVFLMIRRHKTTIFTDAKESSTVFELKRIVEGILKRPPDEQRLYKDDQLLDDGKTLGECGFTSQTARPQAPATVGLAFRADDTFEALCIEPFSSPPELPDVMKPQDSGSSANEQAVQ
T1 sequence (Q15369 whole entry, further chain, the tested form may be a part): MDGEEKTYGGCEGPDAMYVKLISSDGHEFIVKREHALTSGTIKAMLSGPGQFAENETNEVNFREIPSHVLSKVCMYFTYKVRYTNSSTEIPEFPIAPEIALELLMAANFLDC

C[C@H](NP(=O)(Oc1ccc(C[C@H](NC(=O)Cc2ccc(F)cc2)C(=O)NCc2cccc(NC(=O)CCl)c2)cc1)Oc1cccc2ccccc12)C(=O)OCc1ccccc1 (stereo partly drawn) [Compound 23]
Produrg CETSA screening, raw signal (n=1, temperature point 5 of 16, temperature not given): 69363 and 80806 and 112884
Produrg CETSA screening, raw signal (n=1, temperature point 6 of 16, temperature not given): 96967 and 118352 and 144445
Produrg CETSA screening, raw signal (n=1, temperature point 7 of 16, temperature not given): 143643 and 166973 and 192783
Produrg CETSA screening, raw signal (n=1, temperature point 8 of 16, temperature not given): 106216 and 128406 and 210436
Produrg CETSA screening, raw signal (n=1, temperature point 9 of 16, temperature not given): 167377 and 176709 and 206363
Produrg CETSA screening, raw signal (n=1, temperature point 10 of 16, temperature not given): 186703 and 236478 and 300868
Produrg CETSA screening, raw signal (n=1, temperature point 11 of 16, temperature not given): 231104 and 290174 and 305287
Produrg CETSA screening, raw signal (n=1, temperature point 12 of 16, temperature not given): 354321 and 369048 and 401655
Produrg CETSA screening, raw signal (n=1, temperature point 13 of 16, temperature not given): 341517 and 349800 and 466508
Produrg CETSA screening, raw signal (n=1, temperature point 14 of 16, temperature not given): 353173 and 365195 and 397047
Produrg CETSA screening, raw signal (n=1, temperature point 15 of 16, temperature not given): 381815 and 407106 and 448233
Produrg CETSA screening, raw signal (n=1, temperature point 16 of 16, temperature not given): 423512 and 424780 and 453391
Produrg CETSA screening, raw signal (n=2, temperature point 1 of 16, temperature not given): 81542 and 84696 and 155298
Produrg CETSA screening, raw signal (n=2, temperature point 2 of 16, temperature not given): 72558 and 139894 and 123324
Produrg CETSA screening, raw signal (n=2, temperature point 5 of 16, temperature not given): 87834 and 139601 and 100567
Produrg CETSA screening, raw signal (n=2, temperature point 6 of 16, temperature not given): 98775 and 175976 and 137381
Produrg CETSA screening, raw signal (n=2, temperature point 7 of 16, temperature not given): 152633 and 181253 and 191364
Produrg CETSA screening, raw signal (n=2, temperature point 8 of 16, temperature not given): 176015 and 229873 and 213107
Produrg CETSA screening, raw signal (n=2, temperature point 9 of 16, temperature not given): 189127 and 214945 and 246245
Produrg CETSA screening, raw signal (n=2, temperature point 10 of 16, temperature not given): 212633 and 267460 and 262658
Produrg CETSA screening, raw signal (n=2, temperature point 11 of 16, temperature not given): 244590 and 322245 and 338306
Produrg CETSA screening, raw signal (n=2, temperature point 12 of 16, temperature not given): 338485 and 407495 and 420421
Produrg CETSA screening, raw signal (n=2, temperature point 13 of 16, temperature not given): 375692 and 455999 and 437696
Produrg CETSA screening, raw signal (n=2, temperature point 14 of 16, temperature not given): 432064 and 448169 and 475813
Produrg CETSA screening, raw signal (n=2, temperature point 15 of 16, temperature not given): 397604 and 474479 and 457905
Produrg CETSA screening, raw signal (n=2, temperature point 16 of 16, temperature not given): 400496 and 479946 and 527841
Produrg CETSA screening, raw signal (n=3, Temp, 0C 54.1): 44604
Produrg CETSA screening, raw signal (n=3, Temp, 0C 55): 39796 and 47150 and 51627
Produrg CETSA screening, raw signal (n=3, Temp, 0C 56): 45790 and 51042 and 62078
Produrg CETSA screening, raw signal (n=3, Temp, 0C 57.1): 31202 and 38155 and 39301
Produrg CETSA screening, raw signal (n=3, Temp, 0C 59.2): 28243 and 27436 and 39233
Produrg CETSA screening, raw signal (n=3, Temp, 0C 62.3): 17330 and 19655 and 29378
Produrg CETSA screening, raw signal (n=3, Temp, 0C 66.1): 14860 and 24999 and 29256
Produrg CETSA screening, raw signal (n=3, Temp, 0C 71.1): 14600 and 19386 and 22788
ΔT (Prodrug screen CETSA, live HeLa cells, 50 μM, 20 h, Mean n = 3): 2.28 oC
ΔT, individual replicates n1-n3 (Prodrug screen CETSA, single replicates): 0.90 oC and 3.19 oC and 2.74 oC

Reference: publication PMC10564737, “Structure-based design of a phosphotyrosine-masked covalent ligand targeting the E3 ligase SOCS2” (Nature Communications, 2023)
